Results from patent US10597388B2, “Pyridazinone herbicides” (FMC CORPORATION, priority 2014, dated 2020).

Tests used:
Assay in all cases: Test C greenhouse herbicide test, pre- and postemergence
Assay type in all cases: in vivo
[1] = system: crabgrass, large (large crabgrass, Digitaria sanguinalis)
Summary of the method: (§1)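 Two application timings: at sowing into a soil/sand blend, and on 2–18 cm seedlings in peat-vermiculite potting mix. A non-phytotoxic, surfactant-containing solvent carried the compounds. Plants were compared with controls and rated visually on 0–100 after 13–15 d.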

[2] = system: ryegrass, Italian (Italian ryegrass, Lolium multiflorum)
Summary of the method: as §1

[3] = system: soybean (Glycine max)
Summary of the method: as §1

[4] = system: blackgrass (Alopecurus myosuroides)
Summary of the method: as §1

[5] = system: nutsedge, yellow (yellow nutsedge, Cyperus esculentus)
Summary of the method: as §1

[6] = system: wheat (winter wheat, Triticum aestivum)
Summary of the method: as §1

[7] = system: velvetleaf (Abutilon theophrasti)
Summary of the method: as §1

[8] = system: johnsongrass (Sorghum halepense)
Summary of the method: as §1

[9] = system: corn (Zea mays)
Summary of the method: as §1

[10] = system: galium (catchweed bedstraw, Galium aparine)
Summary of the method: as §1

[11] = system: barnyardgrass (Echinochloa crus-galli)
Summary of the method: as §1

[12] = system: foxtail, giant (giant foxtail, Setaria faberii)
Summary of the method: as §1

[13] = Postemergence, 31 g ai/ha, 0 to 100 scale (0 no effect, 100 complete control)
[14] = Postemergence, 125 g ai/ha, scale 0 to 100, 0 is no effect, 100 is complete control
[15] = Postemergence, 250 g ai/ha, scale 0 to 100, 0 no effect, 100 complete control, 13 to 15 d
[16] = Preemergence, 31 g ai/ha, scale 0 to 100, 0 is no effect, 100 is complete control
[17] = Preemergence, 62 g ai/ha, scale 0 to 100, 0 is no effect, 100 is complete control
[18] = Preemergence, 125 g ai/ha, scale 0 to 100, 0 is no effect, 100 is complete control
[19] = Preemergence, 250 g ai/ha, scale 0 to 100, 0 no effect, 100 complete control
[20] = postemergence, 62 g ai/ha, scale 0 to 100, 0 no effect, 100 complete control

## COC(=O)Oc1c(C)nn(C)c(=O)c1-c1c(C)sc2ccc(C)cc12 [Compound 80]
[1]; [13]
  Crabgrass, Large plant response rating: 10
[1]; [14]
  Plant response rating, Crabgrass, Large: 30
[1]; [15]
  Plant response rating, Crabgrass, Large: 35
[1]; [16]
  Plant response rating, Crabgrass, Large: 10
[1]; [17]
  Plant response rating, Crabgrass, Large: 15
[1]; [18]
  Plant response rating, Crabgrass, Large: 40
[1]; [19]
  Crabgrass, Large plant response rating: 75
[1]; [20]
  Crabgrass, Large plant response rating: 25
[2]; [13]
  Ryegrass, Italian plant response rating: 80
[2]; [14]
  Plant response rating, Ryegrass, Italian: 85
[2]; [15]
  Plant response rating, Ryegrass, Italian: 85
[2]; [16]
  Plant response rating, Ryegrass, Italian: 35
[2]; [17]
  Plant response rating, Ryegrass, Italian: 70
[2]; [18]
  Plant response rating, Ryegrass, Italian: 90
[2]; [19]
  Ryegrass, Italian plant response rating: 90
[2]; [20]
  Ryegrass, Italian plant response rating: 85
[3]; [13]
  Soybean plant response rating: 0
[3]; [14]
  Plant response rating, Soybean: 5
[3]; [15]
  Plant response rating, Soybean: 20
[3]; [16]
  Plant response rating, Soybean: 0
[3]; [17]
  Plant response rating, Soybean: 0
[3]; [18]
  Plant response rating, Soybean: 0
[3]; [19]
  Soybean plant response rating: 0
[3]; [20]
  Soybean plant response rating: 15
[4]; [13]
  Blackgrass plant response rating: 15
[4]; [14]
  Plant response rating, Blackgrass: 40
[4]; [15]
  Plant response rating, Blackgrass: 50
[4]; [16]
  Plant response rating, Blackgrass: 70
[4]; [17]
  Plant response rating, Blackgrass: 80
[4]; [18]
  Plant response rating, Blackgrass: 80
[4]; [19]
  Blackgrass plant response rating: 90
[4]; [20]
  Blackgrass plant response rating: 35
[5]; [13]
  Nutsedge, Yellow plant response rating: 65
[5]; [14]
  Plant response rating, Nutsedge, Yellow: 85
[5]; [15]
  Plant response rating, Nutsedge, Yellow: 95
[5]; [16]
  Plant response rating, Nutsedge, Yellow: 20
[5]; [17]
  Plant response rating, Nutsedge, Yellow: 25
[5]; [18]
  Plant response rating, Nutsedge, Yellow: 80
[5]; [19]
  Nutsedge, Yellow plant response rating: 80
[5]; [20]
  Nutsedge, Yellow plant response rating: 80
[6]; [13]
  Wheat plant response rating: 0
[6]; [14]
  Plant response rating, Wheat: 10
[6]; [15]
  Plant response rating, Wheat: 15
[6]; [16]
  Plant response rating, Wheat: 0
[6]; [17]
  Plant response rating, Wheat: 0
[6]; [18]
  Plant response rating, Wheat: 0
[6]; [19]
  Wheat plant response rating: 0
[6]; [20]
  Wheat plant response rating: 5
[7]; [13]
  Velvetleaf plant response rating: 70
[7]; [14]
  Plant response rating, Velvetleaf: 55
[7]; [15]
  Plant response rating, Velvetleaf: 90
[7]; [16]
  Plant response rating, Velvetleaf: 55
[7]; [17]
  Plant response rating, Velvetleaf: 85
[7]; [18]
  Plant response rating, Velvetleaf: 90
[7]; [19]
  Velvetleaf plant response rating: 95
[7]; [20]
  Velvetleaf plant response rating: 90
[8]; [13]
  Johnsongrass plant response rating: 5
[8]; [14]
  Plant response rating, Johnsongrass: 5
[8]; [15]
  Plant response rating, Johnsongrass: 15
[8]; [16]
  Plant response rating, Johnsongrass: 5
[8]; [17]
  Plant response rating, Johnsongrass: 5
[8]; [18]
  Plant response rating, Johnsongrass: 30
[8]; [19]
  Johnsongrass plant response rating: 35
[8]; [20]
  Johnsongrass plant response rating: 5
[9]; [13]
  Corn plant response rating: 0
[9]; [14]
  Plant response rating, Corn: 5
[9]; [15]
  Plant response rating, Corn: 5
[9]; [16]
  Plant response rating, Corn: 0
[9]; [17]
  Plant response rating, Corn: 10
[9]; [18]
  Plant response rating, Corn: 10
[9]; [19]
  Corn plant response rating: 25
[9]; [20]
  Corn plant response rating: 5
[10]; [13]
  Galium plant response rating: 90
[10]; [14]
  Plant response rating, Galium: 95
[10]; [15]
  Plant response rating, Galium: 95
[10]; [16]
  Plant response rating, Galium: 90
[10]; [17]
  Plant response rating, Galium: 95
[10]; [18]
  Plant response rating, Galium: 95
[10]; [19]
  Galium plant response rating: 95
[10]; [20]
  Galium plant response rating: 95
[11]; [13]
  Barnyardgrass plant response rating: 25
[11]; [14]
  Plant response rating, Barnyardgrass: 35
[11]; [15]
  Plant response rating, Barnyardgrass: 35
[11]; [16]
  Plant response rating, Barnyardgrass: 10
[11]; [17]
  Plant response rating, Barnyardgrass: 65
[11]; [18]
  Plant response rating, Barnyardgrass: 75
[11]; [19]
  Barnyardgrass plant response rating: 85
[11]; [20]
  Barnyardgrass plant response rating: 30
[12]; [13]
  Foxtail, Giant plant response rating: 25
[12]; [14]
  Plant response rating, Foxtail, Giant: 70
[12]; [15]
  Plant response rating, Foxtail, Giant: 90
[12]; [16]
  Plant response rating, Foxtail, Giant: 70
[12]; [17]
  Plant response rating, Foxtail, Giant: 85
[12]; [18]
  Plant response rating, Foxtail, Giant: 85
[12]; [19]
  Foxtail, Giant plant response rating: 98
[12]; [20]
  Foxtail, Giant plant response rating: 55
